Assays:
Assay in all cases: relative viability (nuclei count vs DMSO), 5 days (fraction); higher = more cells survive
CUDC-101 + Alpelisib = compound: C#Cc1cccc(Nc2ncnc3cc(OC)c(OCCCCCCC(=O)NO)cc23)c1 [CUDC-101] + Cc1nc(NC(=O)N2CCC[C@H]2C(N)=O)sc1-c1ccnc(C(C)(C)C(F)(F)F)c1 [Alpelisib] (partner 2 µM)
How it was run: (§1)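 Lung cancer cell lines in 1536-well plates got either a single drug or a fixed anchor-drug dose together with five library-drug doses (not always all listed) in √10 steps, by pin tool, on the day after seeding. Nuclei were counted after 5 days, and relative viability is the treated-to-vehicle ratio of nuclei counts. Values are medians of duplicate plates.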

[1] = compound: C1=CC=C2C(=C1)N=C(S2)C(C#N)C3=NC(=NC=C3)NCCC4=CN=CC=C4 + O=C(CCCCCCC(=O)Nc1ccccc1)NO [Vorinostat] (partner 1 µM)
How it was run: as §1

Vandetanib + Bortezomib = compound: COc1cc2/c(=N/c3ccc(Br)cc3F)nc[nH]c2cc1OCC1CCN(C)CC1 [Vandetanib] + CC(C)C[C@H](NC(=O)[C@H](Cc1ccccc1)NC(=O)c1cnccn1)B(O)O [Bortezomib] (partner 0.002 µM)
How it was run: as §1

Vandetanib + Phenformin = compound: COc1cc2/c(=N/c3ccc(Br)cc3F)nc[nH]c2cc1OCC1CCN(C)CC1 [Vandetanib] + N=C(N)NC(=N)NCCc1ccccc1 [Phenformin] (partner 250 µM)
How it was run: as §1

Cell Line	relative viability (CUDC-101 + Alpelisib; first compound 0.01 µM)	relative viability (CUDC-101 + Alpelisib; first compound 0.03162 µM)	relative viability (CUDC-101 + Alpelisib; first compound 0.1 µM)	relative viability (CUDC-101 + Alpelisib; first compound 0.3162 µM)	relative viability (CUDC-101 + Alpelisib; first compound 1 µM)	relative viability ([1]; first compound 0.005 µM)	relative viability ([1]; first compound 0.01581 µM)	relative viability ([1]; first compound 0.05 µM)	relative viability ([1]; first compound 0.1581 µM)	relative viability ([1]; first compound 0.5 µM)	relative viability (Vandetanib + Bortezomib; first compound 0.02 µM)	relative viability (Vandetanib + Bortezomib; first compound 0.06325 µM)	relative viability (Vandetanib + Bortezomib; first compound 0.2 µM)	relative viability (Vandetanib + Bortezomib; first compound 0.6325 µM)	relative viability (Vandetanib + Bortezomib; first compound 2 µM)	relative viability (Vandetanib + Phenformin; first compound 0.02 µM)	relative viability (Vandetanib + Phenformin; first compound 0.06325 µM)	relative viability (Vandetanib + Phenformin; first compound 0.2 µM)	relative viability (Vandetanib + Phenformin; first compound 0.6325 µM)	relative viability (Vandetanib + Phenformin; first compound 2 µM)
HCC-44	0.641	0.664	0.771	0.781	0.685	1.19	1.14	1.09	1.15	1.02	0.866	0.884	0.951	0.958	0.89	0.186	0.223	0.175	0.242	0.121
EKVX	0.833	0.817	0.849	1.03	0.682	0.506	0.731	0.677	0.821	0.741	1.09	0.998	1.03	0.796	0.666	0.245	0.234	0.228	0.227	0.219
NCI-H23	0.775	0.592	0.727	0.652	0.718		0.504	0.529	0.804	0.627	1	0.944	1.06	0.785	0.884	0.763	0.733	0.8	0.777	0.742
NCI-H2347	1.09	1.08	1.09	1.11	1.03	0.578	0.524	0.551	0.72	0.558	0.878		0.896	0.956	0.969	0.336		0.256	0.403	0.493
SK-LU-1	1.18	1.05	1.11	0.812	0.505	0.643	0.859	0.787	0.911	0.685	1.23	1.01	1.21	1.39	0.467	0.518	0.405	0.464	0.491	0.558
A549	0.773	0.757	0.605	0.948	0.618											0.195	0.133	0.121	0.142	0.0686
LU99A	0.584	0.603	0.518	0.433	0.263	0.417	0.529		0.622	0.477	1.14	1.22	1.11	1.07	1.07	0.876	0.818	0.577	0.766	0.886
NCI-H596	0.463	0.395	0.481	0.465	0.512	0.463	0.446	0.716	0.654	0.676	0.998	1	0.965	0.717	0.958	0.917	0.623	0.698	0.747	0.698
A-427	1.15	1.1	1.11	1.02	0.887	0.9	0.86	0.811	0.902	0.887	0.887	0.99	1.04	1.02	0.961	0.297	0.303	0.274	0.253	0.22
SW 900						0.495	0.42	0.67	0.693	0.456						0.635	0.657	0.197	0.474	0.434
COR-L 105	1.17	0.848	0.88	0.829	0.52	0.648	0.908	0.884	0.893	0.876	0.827	0.661	0.851	0.474	0.388	0.535	0.483	0.449	0.292	0.294
LOU-NH91	0.652	0.533	0.509	0.574	0.482	0.907	0.826	0.769	1.03	0.837	0.514	0.47	0.535	0.504	0.504	0.709	0.619	0.537	0.509	0.51
COR-L23	0.968	0.753	0.661	0.617	0.349	0.377	0.354	0.464	0.421	0.36	0.869	0.814	0.925	0.999	0.994	0.485	0.442	0.428	0.452	0.464
HCC-15	0.875	0.888	0.909	0.909	0.763	0.959	0.971	0.816	0.851	0.775	1.03	0.962	0.956	1.08	1.08	0.476	0.429	0.468	0.449	0.447
LCLC-103H	0.93	0.95	1.01	1.02	0.953	0.712	0.664	0.718	0.878	0.76	1.09	0.966	1.05	1.05	0.924	0.316	0.319	0.357	0.344	0.31
NCI-H1299	1.08	1	1.11	1.06	1.05						0.997	0.976	1.02	1.05	1.04					
NCI-H1395	0.993	0.998	1.1	1.18	0.823	0.556		0.707	0.788	0.611						0.472	0.429	0.427	0.439	0.458
NCI-H1650						0.472	0.597	0.535	0.676	0.439	0.253	0.21		0.209	0.195	0.409	0.332	0.251	0.329	0.321

Cell Line	relative viability (CUDC-101 + Alpelisib; first compound 0.01 µM)	relative viability (CUDC-101 + Alpelisib; first compound 0.03162 µM)	relative viability (CUDC-101 + Alpelisib; first compound 0.1 µM)	relative viability (CUDC-101 + Alpelisib; first compound 0.3162 µM)	relative viability (CUDC-101 + Alpelisib; first compound 1 µM)	relative viability ([1]; first compound 0.005 µM)	relative viability ([1]; first compound 0.01581 µM)	relative viability ([1]; first compound 0.05 µM)	relative viability ([1]; first compound 0.1581 µM)	relative viability ([1]; first compound 0.5 µM)	relative viability (Vandetanib + Bortezomib; first compound 0.02 µM)	relative viability (Vandetanib + Bortezomib; first compound 0.06325 µM)	relative viability (Vandetanib + Bortezomib; first compound 0.2 µM)	relative viability (Vandetanib + Bortezomib; first compound 0.6325 µM)	relative viability (Vandetanib + Bortezomib; first compound 2 µM)	relative viability (Vandetanib + Phenformin; first compound 0.02 µM)	relative viability (Vandetanib + Phenformin; first compound 0.06325 µM)	relative viability (Vandetanib + Phenformin; first compound 0.2 µM)	relative viability (Vandetanib + Phenformin; first compound 0.6325 µM)	relative viability (Vandetanib + Phenformin; first compound 2 µM)
NCI-H1792	0.702	0.57	0.695	0.734	0.645						0.994	0.926	0.914	0.865	0.887	0.298	0.236	0.184	0.254	0.175
NCI-H1944	0.819	0.682	0.799	0.756	0.514	0.638	0.521	0.537	0.558	0.52						0.205	0.195	0.209	0.168	0.188
IA-LM	0.676	0.769	0.678	0.745	0.388	0.742	1.09	1.02	1.11	0.613	0.727	0.831	1.01	1.06	0.953					
NCI-H2342						0.621	0.811	0.737	0.776	0.756						0.596	0.496	0.592	0.576	0.477
NCI-H358	1.21	0.871	0.926	0.71	0.415	0.568	0.642	0.557	0.708	0.558						0.295	0.275	0.265	0.217	0.26
NCI-H2170	0.88	0.744	0.724	0.658	0.47	0.756	0.86	0.777	0.887	0.877						0.342	0.402	0.415	0.409	0.357
NCI-H522						0.824	0.774	0.875	0.712	0.864						0.691	0.623	0.66	0.585	0.712
Calu-6	1.02	0.939	0.986	1	0.763						1.15	0.933	1.09	0.959	0.941					
NCI-H1703	0.303		0.322	0.53	0.506						0.379		0.374	0.31	0.245					
NCI-H1793	0.796	0.41	0.658	0.627	0.546		0.465	0.713	0.829	0.811						0.371	0.355	0.328	0.299	0.292
LK-2	1.08	0.959	1.09	1.05	0.647	0.294	0.278	0.369	0.333	0.355						0.381	0.5	0.419	0.444	0.408
SK-MES-1	0.798	0.877	0.879	0.874	0.592	1.01	1.06	0.938	1.32	0.935						0.657	0.608	0.62	0.581	0.471
NCI-H1623																0.574	0.525	0.574	0.526	0.622
ChaGo-K-1						0.584	0.809	0.702	0.863	0.724	1.11	0.985	0.593	0.887	0.567	0.411	0.463	0.297	0.452	0.466
NCI-H1563	0.919	0.815	0.925	0.942	0.882						0.821	0.807	1.12	0.797	0.845	0.679	0.629	0.695	0.616	0.625
EBC-1	0.796	0.709	0.696	0.721	0.319						0.635	0.559	0.647	0.577	0.505					
NCI-H1648							0.448		0.622	0.417										

Reference: the supplement of paper PMC10307832
